Earlier results in patent publication US6372499B1, “Polymeric complexes for the transfection of nucleic acids, with residues causing the destabilisation of cell membranes” (I.D.M. Immuno-Designed Molecules, priority 1996, dated 2002).

Assays:
[1] = persons, daily dose of 300 mg per day, after a few days
cells = settings: after a few hours

plasma concentration [1]: about 0.7 μM
intracellular concentration relative to the concentration in the medium (cells): more than 100 times higher
intracellular concentration (cells; initial concentration 100 μM): exceed 10 mM
SMILES: CCN(CC)CCCC(C)Nc1ccnc2cc(Cl)ccc12 (stereo not drawn) [chloroquine]
